Holding throughout (format): biochemical
Experiment [1] deals with CDK1/CCNB1 (Homo sapiens, UniProt P06493). Description: CDK1 homogeneous time-resolved fluorescence (HTRF) kinase assay. The note with it: CDK1/CCNB. Put shortly: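 Kinase activity is measured as Lance signal (665 nm, or 665/615 nm ratio) from europium-labelled anti-phospho-Thr37/46 antibody binding ULight-4E-BP1 peptide. Reactions contain 0.5 nM enzyme, 1 mM ATP, 1% DMSO and run 60 min at 23 °C before EDTA quench.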
(In general: TR-FRET usually uses a lanthanide donor and a delayed reading to cut background.)

Experiment [2] addresses CDK2/CCNE1 (Homo sapiens, UniProt P24941). In words: CDK2 homogeneous time-resolved fluorescence (HTRF) kinase assay. The note with it: CDK2/CCNE. The gist of the method: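 Compounds were titrated 11-point, half-log from typically 10 μM against 3 nM CDK2/cyclin E1 at 1 mM ATP, with a 20 min enzyme preincubation. Phosphorylation of 50 nM ULight-4E-BP1 peptide over 60 min at 23 °C was detected by europium anti-phospho antibody TR-FRET.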

Experiment [3] has as its target CDK6/CCND1 (Homo sapiens, UniProt Q00534). In words: CDK6 homogeneous time-resolved fluorescence (HTRF) kinase assay. As to conditions: CDK6/CCND, 1 mM ATP. Put shortly: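 1 nM enzyme, 1 mM ATP, 50 nM ULight-4E-BP1 (Thr37/46) peptide, 1% DMSO; 20 min compound preincubation, 60 min reaction, 23 °C. EDTA stop, 2 nM Eu-anti-phospho-4E-BP1 antibody 60 min. TR-FRET 665 nm (or 665/615 ratio); IC50 from 11-point half-log titration, top 10 μM.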

In experiment [4] the target is CDK4/CCND3 (Homo sapiens, UniProt P11802). Description: CDK4 homogeneous time-resolved fluorescence (HTRF) kinase assay. The note with it: CDK4/CCND. The gist of the method:
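Inhibition of CDK4/CCND3 (1.5 nM) was measured at high ATP (1 mM) using 50 nM ULight-labelled 4E-BP1 Thr37/46 peptide; detection used 2 nM europium anti-phospho antibody after EDTA quench. IC50 values came from 11-point half-log titrations typically starting at 10 μM.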

Where [5] appears, read: >250 nM, read-out: CDK1/CCNB IC50 >250 nM.
[6] abbreviates: <25 nM, read-out: CDK2/CCNE IC50, <25 nM.
The mark [7] stands for this setting: >250 nM, read-out: CDK6/CCND IC50, >250 nM.
The mark [8] stands for this setting: >250 nM, read-out: CDK4/CCND IC50, >250 nM.
The mark [9] stands for this setting: 25-250 nM, read-out: CDK2/CCNE IC50, 25-250 nM.
Setting [10] is: 25-250 nM, read-out: CDK6/CCND IC50, 25-250 nM.
Where [11] appears, read: 25-250 nM, read-out: CDK1/CCNB IC50, 25-250 nM.
Where [12] appears, read: 25-250 nM, read-out: CDK4/CCND IC50, 25-250 nM.

The results in this text go back to US20260325533A1, “CDK INHIBITOR COMPOUNDS” (ALEKSIA THERAPEUTICS, INC., priority 2023, published 2026).

Where two headings read alike, the source gives them in different places.

Chain of CDK1/CCNB1 (P06493 whole entry): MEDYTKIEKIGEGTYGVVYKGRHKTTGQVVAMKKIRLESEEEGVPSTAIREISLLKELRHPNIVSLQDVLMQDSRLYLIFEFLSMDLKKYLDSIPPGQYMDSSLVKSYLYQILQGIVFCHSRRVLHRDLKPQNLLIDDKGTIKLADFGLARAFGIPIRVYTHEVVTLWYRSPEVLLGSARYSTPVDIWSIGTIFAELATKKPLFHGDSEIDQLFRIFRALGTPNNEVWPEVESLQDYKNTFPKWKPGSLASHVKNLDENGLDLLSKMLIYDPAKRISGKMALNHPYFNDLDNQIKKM
Chain of CDK1/CCNB1 (P14635 whole entry partner): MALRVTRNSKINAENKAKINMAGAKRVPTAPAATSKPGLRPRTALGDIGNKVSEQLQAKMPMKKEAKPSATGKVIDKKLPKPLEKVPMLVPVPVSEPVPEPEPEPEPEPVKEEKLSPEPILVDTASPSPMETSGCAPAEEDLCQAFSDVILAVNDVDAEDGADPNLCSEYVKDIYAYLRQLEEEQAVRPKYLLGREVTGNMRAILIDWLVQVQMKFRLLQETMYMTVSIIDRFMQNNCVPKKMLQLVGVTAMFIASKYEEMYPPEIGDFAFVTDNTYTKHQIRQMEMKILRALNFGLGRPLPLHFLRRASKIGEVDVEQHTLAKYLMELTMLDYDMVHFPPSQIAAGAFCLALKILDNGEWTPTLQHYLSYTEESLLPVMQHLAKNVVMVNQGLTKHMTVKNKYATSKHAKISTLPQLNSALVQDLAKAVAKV
Chain of CDK4/CCND3 (P11802 whole entry): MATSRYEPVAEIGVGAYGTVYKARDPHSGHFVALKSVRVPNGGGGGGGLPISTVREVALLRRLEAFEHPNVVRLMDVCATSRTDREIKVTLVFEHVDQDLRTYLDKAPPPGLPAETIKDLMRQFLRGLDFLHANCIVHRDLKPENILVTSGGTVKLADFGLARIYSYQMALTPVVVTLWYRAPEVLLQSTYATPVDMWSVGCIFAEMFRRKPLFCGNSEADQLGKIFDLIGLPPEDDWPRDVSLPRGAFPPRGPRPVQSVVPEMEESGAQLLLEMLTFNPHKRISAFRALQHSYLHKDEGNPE
Chain of CDK4/CCND3 (P30281 whole entry partner): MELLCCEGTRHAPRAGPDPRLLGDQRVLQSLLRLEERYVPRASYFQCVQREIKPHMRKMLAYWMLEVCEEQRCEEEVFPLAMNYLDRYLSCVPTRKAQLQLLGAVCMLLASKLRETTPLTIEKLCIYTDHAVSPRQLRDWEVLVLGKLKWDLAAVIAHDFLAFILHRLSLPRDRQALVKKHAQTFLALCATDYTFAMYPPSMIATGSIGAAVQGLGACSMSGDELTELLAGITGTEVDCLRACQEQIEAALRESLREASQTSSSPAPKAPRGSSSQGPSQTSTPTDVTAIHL
Chain of CDK6/CCND1 (Q00534 whole entry): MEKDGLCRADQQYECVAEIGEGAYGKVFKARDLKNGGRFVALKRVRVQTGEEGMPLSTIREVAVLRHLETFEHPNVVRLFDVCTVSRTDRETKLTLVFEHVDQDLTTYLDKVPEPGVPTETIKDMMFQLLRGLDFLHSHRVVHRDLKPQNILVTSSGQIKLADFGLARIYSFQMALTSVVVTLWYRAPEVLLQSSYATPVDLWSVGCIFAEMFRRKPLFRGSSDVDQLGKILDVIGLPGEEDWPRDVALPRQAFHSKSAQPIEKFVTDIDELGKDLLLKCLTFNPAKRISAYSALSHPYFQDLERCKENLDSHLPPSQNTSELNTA
Chain of CDK6/CCND1 (P24385 whole entry partner): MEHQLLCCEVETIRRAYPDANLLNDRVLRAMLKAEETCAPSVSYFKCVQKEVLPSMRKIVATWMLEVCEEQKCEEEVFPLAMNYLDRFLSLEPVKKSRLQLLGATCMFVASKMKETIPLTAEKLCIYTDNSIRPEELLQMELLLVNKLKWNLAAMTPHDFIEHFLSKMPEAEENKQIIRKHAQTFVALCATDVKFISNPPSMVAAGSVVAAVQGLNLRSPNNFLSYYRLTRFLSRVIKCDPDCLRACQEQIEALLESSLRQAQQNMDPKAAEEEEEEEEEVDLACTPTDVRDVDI

In the case of `COc1cccc(NS(=O)(=O)c2ccc(Nc3cc4c(-c5ccc6c(cnn6CC(C)(C)O)c5C)nccc4cn3)cc2)c1` [Ex 804, 4-((5-(1-(2-hydroxy-2-methylpropyl)-4-methyl-1H-indazol-5-yl)-2,6-naphthyridin-3-yl)amino)-N-(3-methoxyphenyl)benzenesulfonamide], the IC50 in experiment [1] (setting [5]) is greater than 0.25 µM; in experiment [2] (setting [6]) it was less than 0.025 µM; in experiment [3] (setting [7]) it was greater than 0.25 µM; in experiment [4] (setting [8]), greater than 0.25 µM.

As to `COc1cc(NS(=O)(=O)c2ccc(Nc3cc4c(-c5ccc6c(cnn6CC(C)(C)O)c5C)nccc4cn3)cc2)cc(OC)c1` [Ex 805, N-(3,5-dimethoxyphenyl)-4-((5-(1-(2-hydroxy-2-methylpropyl)-4-methyl-1H-indazol-5-yl)-2,6-naphthyridin-3-yl)amino)benzenesulfonamide], the IC50 in experiment [1] (setting [5]) was greater than 0.25 µM; in experiment [2] (setting [6]), less than 0.025 µM; in experiment [3] (setting [7]) it was greater than 0.25 µM; in experiment [4] (setting [8]), greater than 0.25 µM.

Turning to `Cc1c(-c2nccc3cnc(Nc4ccc(S(=O)(=O)Nc5cccc(C(F)(F)F)c5)cc4)cc23)ccc2c1cnn2CC(C)(C)O` [Ex 806, 4-((5-(1-(2-hydroxy-2-methylpropyl)-4-methyl-1H-indazol-5-yl)-2,6-naphthyridin-3-yl)amino)-N-(3-(trifluoromethyl)phenyl)benzenesulfonamide], the IC50 in experiment [1] (setting [5]) is greater than 0.25 µM; in experiment [2] (setting [9]), 0.025 to 0.25 µM; in experiment [3] (setting [7]), greater than 0.25 µM; in experiment [4] (setting [8]), greater than 0.25 µM.

As to `Cc1cccc(NS(=O)(=O)c2ccc(Nc3cc4c(-c5ccc6c(cnn6CC(C)(C)O)c5C)nccc4cn3)cc2)c1` [Ex 807, 4-((5-(1-(2-hydroxy-2-methylpropyl)-4-methyl-1H-indazol-5-yl)-2,6-naphthyridin-3-yl)amino)-N-(m-tolyl)benzenesulfonamide], the IC50 was greater than 0.25 µM in experiment [1] (setting [5]), less than 0.025 µM in experiment [2] (setting [6]), greater than 0.25 µM in experiment [3] (setting [7]) and greater than 0.25 µM in experiment [4] (setting [8]).

`Cc1cc(C)cc(NS(=O)(=O)c2ccc(Nc3cc4c(-c5ccc6c(cnn6CC(C)(C)O)c5C)nccc4cn3)cc2)c1` [Ex 808, N-(3,5-dimethylphenyl)-4-((5-(1-(2-hydroxy-2-methylpropyl)-4-methyl-1H-indazol-5-yl)-2,6-naphthyridin-3-yl)amino)benzenesulfonamide]: the IC50 is greater than 0.25 µM in experiment [1] (setting [5]), 0.025 to 0.25 µM in experiment [2] (setting [9]), greater than 0.25 µM in experiment [3] (setting [7]) and greater than 0.25 µM in experiment [4] (setting [8]).

Take `Cc1c(-c2nccc3cnc(Nc4ccc(S(=O)(=O)Nc5ccccc5)cc4)cc23)ccc2c1cnn2CC(C)(C)O` [Ex 809, 4-((5-(1-(2-hydroxy-2-methylpropyl)-4-methyl-1H-indazol-5-yl)-2,6-naphthyridin-3-yl)amino)-N-phenylbenzenesulfonamide]: the IC50 was greater than 0.25 µM in experiment [1] (setting [5]), less than 0.025 µM in experiment [2] (setting [6]), greater than 0.25 µM in experiment [3] (setting [7]) and greater than 0.25 µM in experiment [4] (setting [8]).

On to `Cc1c(-c2nccc3cnc(Nc4ccc(S(=O)(=O)Nc5ccc(C(C)(C)O)cn5)cc4)cc23)ccc2c1cnn2CC(C)(C)O` [Ex 810, 4-((5-(1-(2-hydroxy-2-methylpropyl)-4-methyl-1H-indazol-5-yl)-2,6-naphthyridin-3-yl)amino)-N-(5-(2-hydroxypropan-2-yl)pyridin-2-yl)benzenesulfonamide], for which the IC50 is greater than 0.25 µM in experiment [1] (setting [5]), less than 0.025 µM in experiment [2] (setting [6]), 0.025 to 0.25 µM in experiment [3] (setting [10]) and greater than 0.25 µM in experiment [4] (setting [8]).

In the case of `Cc1c(-c2nccc3cnc(Nc4ccc(S(=O)(=O)Nc5cccc(C(C)(C)O)n5)cc4)cc23)ccc2c1cnn2CC(C)(C)O` [Ex 811, 4-((5-(1-(2-hydroxy-2-methylpropyl)-4-methyl-1H-indazol-5-yl)-2,6-naphthyridin-3-yl)amino)-N-(6-(2-hydroxypropan-2-yl)pyridin-2-yl)benzenesulfonamide], the IC50 is 0.025 to 0.25 µM in experiment [1] (setting [11]), less than 0.025 µM in experiment [2] (setting [6]), greater than 0.25 µM in experiment [3] (setting [7]) and greater than 0.25 µM in experiment [4] (setting [8]).

With `COc1cccc(NS(=O)(=O)c2ccc(Nc3cc4c(-c5ccc6c(cnn6CC(C)(C)O)c5C)nccc4cn3)cc2)n1` [Ex 812, 4-((5-(1-(2-hydroxy-2-methylpropyl)-4-methyl-1H-indazol-5-yl)-2,6-naphthyridin-3-yl)amino)-N-(6-methoxypyridin-2-yl)benzenesulfonamide], the IC50 in experiment [1] (setting [5]) was greater than 0.25 µM; in experiment [2] (setting [6]) it was less than 0.025 µM; in experiment [3] (setting [7]), greater than 0.25 µM; in experiment [4] (setting [8]), greater than 0.25 µM.

For `COc1ccnc(NS(=O)(=O)c2ccc(Nc3cc4c(-c5ccc6c(cnn6CC(C)(C)O)c5C)nccc4cn3)cc2)c1` [Ex 813, 4-((5-(1-(2-hydroxy-2-methylpropyl)-4-methyl-1H-indazol-5-yl)-2,6-naphthyridin-3-yl)amino)-N-(4-methoxypyridin-2-yl)benzenesulfonamide], the IC50 is greater than 0.25 µM in experiment [1] (setting [5]), less than 0.025 µM in experiment [2] (setting [6]), 0.025 to 0.25 µM in experiment [3] (setting [10]) and greater than 0.25 µM in experiment [4] (setting [8]).

For `COc1cc(NS(=O)(=O)c2ccc(Nc3cc4c(-c5ccc6c(cnn6CC(C)(C)O)c5C)nccc4cn3)cc2)nc(OC)c1` [Ex 814, N-(4,6-dimethoxypyridin-2-yl)-4-((5-(1-(2-hydroxy-2-methylpropyl)-4-methyl-1H-indazol-5-yl)-2,6-naphthyridin-3-yl)amino)benzenesulfonamide], the IC50 in experiment [1] (setting [5]) is greater than 0.25 µM; in experiment [2] (setting [6]), less than 0.025 µM; in experiment [3] (setting [7]), greater than 0.25 µM; in experiment [4] (setting [8]) it was greater than 0.25 µM.

Regarding `Cc1c(-c2nccc3cnc(Nc4ccc(S(=O)(=O)Nc5cccc(C(F)(F)F)n5)cc4)cc23)ccc2c1cnn2CC(C)(C)O` [Ex 815, 4-((5-(1-(2-hydroxy-2-methylpropyl)-4-methyl-1H-indazol-5-yl)-2,6-naphthyridin-3-yl)amino)-N-(6-(trifluoromethyl)pyridin-2-yl)benzenesulfonamide], the IC50 is 0.025 to 0.25 µM in experiment [1] (setting [11]), less than 0.025 µM in experiment [2] (setting [6]), greater than 0.25 µM in experiment [3] (setting [7]) and greater than 0.25 µM in experiment [4] (setting [8]).

Take `Cc1c(-c2nccc3cnc(Nc4ccc(S(=O)(=O)Nc5cc(C(F)(F)F)ccn5)cc4)cc23)ccc2c1cnn2CC(C)(C)O` [Ex 816, 4-((5-(1-(2-hydroxy-2-methylpropyl)-4-methyl-1H-indazol-5-yl)-2,6-naphthyridin-3-yl)amino)-N-(4-(trifluoromethyl)pyridin-2-yl)benzenesulfonamide]: the IC50 in experiment [1] (setting [5]) is greater than 0.25 µM; in experiment [2] (setting [6]), less than 0.025 µM; in experiment [3] (setting [7]), greater than 0.25 µM; in experiment [4] (setting [8]) it was greater than 0.25 µM.

Consider `Cc1cccc(NS(=O)(=O)c2ccc(Nc3cc4c(-c5ccc6c(cnn6CC(C)(C)O)c5C)nccc4cn3)cc2)n1` [Ex 817, 4-((5-(1-(2-hydroxy-2-methylpropyl)-4-methyl-1H-indazol-5-yl)-2,6-naphthyridin-3-yl)amino)-N-(6-methylpyridin-2-yl)benzenesulfonamide], for which the IC50 in experiment [1] (setting [5]) is greater than 0.25 µM; in experiment [2] (setting [6]), less than 0.025 µM; in experiment [3] (setting [10]), 0.025 to 0.25 µM; in experiment [4] (setting [12]), 0.025 to 0.25 µM.

On to `Cc1cc(C)nc(NS(=O)(=O)c2ccc(Nc3cc4c(-c5ccc6c(cnn6CC(C)(C)O)c5C)nccc4cn3)cc2)c1` [Ex 818, N-(4,6-dimethylpyridin-2-yl)-4-((5-(1-(2-hydroxy-2-methylpropyl)-4-methyl-1H-indazol-5-yl)-2,6-naphthyridin-3-yl)amino)benzenesulfonamide], for which the IC50 was greater than 0.25 µM in experiment [1] (setting [5]), less than 0.025 µM in experiment [2] (setting [6]), 0.025 to 0.25 µM in experiment [3] (setting [10]) and 0.025 to 0.25 µM in experiment [4] (setting [12]).

In the case of `Cc1c(-c2nccc3cnc(Nc4ccc(NS(=O)(=O)c5cccc6nsnc56)cc4)cc23)ccc2c1cnn2CC(C)(C)O` [Ex 819, N-(4-((5-(1-(2-hydroxy-2-methylpropyl)-4-methyl-1H-indazol-5-yl)-2,6-naphthyridin-3-yl)amino)phenyl)benzo[c][1,2,5]thiadiazole-4-sulfonamide], the IC50 in experiment [1] (setting [5]) is greater than 0.25 µM; in experiment [2] (setting [9]) it was 0.025 to 0.25 µM; in experiment [3] (setting [7]) it was greater than 0.25 µM; in experiment [4] (setting [8]), greater than 0.25 µM.

As to `Cc1c(-c2nccc3cnc(Nc4ccc(NS(=O)(=O)c5cccc6nn(C)cc56)cc4)cc23)ccc2c1cnn2CC(C)(C)O` [Ex 820, N-(4-((5-(1-(2-hydroxy-2-methylpropyl)-4-methyl-1H-indazol-5-yl)-2,6-naphthyridin-3-yl)amino)phenyl)-2-methyl-2H-indazole-4-sulfonamide], the IC50 is greater than 0.25 µM in experiment [1] (setting [5]), 0.025 to 0.25 µM in experiment [2] (setting [9]), greater than 0.25 µM in experiment [3] (setting [7]) and greater than 0.25 µM in experiment [4] (setting [8]).
